# pIC50: −log10 of the molar value.
# Molecular target: phosphorylated active hERK2 enzyme (Homo sapiens (Human), UniProt P28482)
# Conditions: not given
# Chain of phosphorylated active hERK2 enzyme (P28482 whole entry): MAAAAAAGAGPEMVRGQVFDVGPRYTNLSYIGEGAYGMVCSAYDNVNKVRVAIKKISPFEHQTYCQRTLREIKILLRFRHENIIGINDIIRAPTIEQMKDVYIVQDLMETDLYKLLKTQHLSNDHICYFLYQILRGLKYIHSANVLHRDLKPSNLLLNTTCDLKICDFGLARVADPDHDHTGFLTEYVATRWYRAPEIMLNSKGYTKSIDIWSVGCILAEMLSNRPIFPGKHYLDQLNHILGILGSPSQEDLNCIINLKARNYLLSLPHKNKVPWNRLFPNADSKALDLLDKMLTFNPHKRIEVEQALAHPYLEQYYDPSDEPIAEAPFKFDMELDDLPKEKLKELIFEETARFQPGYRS
row,SMILES,pIC50
1,"CO[C@H]1CCCC[C@@H]1NC(=O)Nc1cc2cnn(-c3ccnc(C)c3)c2cn1 (racemic) [Example 145, Racemic 1-[(1S,2S) and (1R,2R)-2-methoxycyclohexyl]-3-[1-(2-methylpyridin-4-yl)-1H-pyrazolo[3,4-c]pyridin-5-yl)urea]",6.91
2,"CCO[C@H]1CCCC[C@@H]1NC(=O)Nc1cc2cnn(-c3ccnc(C)c3)c2cn1 (racemic) [Example 146, Racemic 1-[(1S,2S) and (1R,2R)-2-ethoxycyclohexyl]-3-[1-(2-methylpyridin-4-yl)-1H-pyrazolo[3,4-c]pyridin-5-yl]urea]",6.75
3,"CCO[C@H]1CCC[C@@H]1NC(=O)Nc1cc2cnn(-c3ccnc(C)c3)c2cn1 (racemic) [Example 147, Racemic 1-[(1S,2S) and (1R,2R)-2-ethoxycyclopentyl]-3-[1-(2-methylpyridin-4-yl)-1H-pyrazolo[3,4-c]pyridin-5-yl]urea]",7.47
4,"Cc1cc(-n2ncc3cc(NC(=O)N[C@H]4CCC[C@H]4c4ccccc4)ncc32)ccn1 (racemic) [Example 148, Racemic 1-[1-(2-methylpyridin-4-yl)-1H-pyrazolo[3,4-c]pyridin-5-yl]-3-[(1S,2S) and (1R, 2R)-2-phenylcyclopentyl]urea]",8.10
5,"Cc1cc(-n2ncc3cc(NC(=O)N[C@H]4CCCC[C@@H]4NC(=O)c4ccccc4)ncc32)ccn1 (racemic) [Example 152, Racemic Trans N-[(1S,2S) and (1R, 2R)-2-({[1-(2-methylpyridin-4-yl)-1H-pyrazolo[3,4-c]pyridin-5-yl]carbamoyl}amino)cyclo-hexy]benzamide]",6.15
6,"Cc1cc(-n2ncc3cc(NC(=O)N[C@H]4CCC[C@H]4c4ccc(F)cc4)ncc32)ccn1 (racemic) [Example 153, Racemic cis 1-[(1S,2S) and (1R,2R)-2-(4-fluorophenyl)cyclopentyl]-3-[1-(2-methylpyridin-4-yl)-1H-pyrazolo[3,4-c]pyridin-5-yl]urea]",7.37
7,"Cc1cc(-n2ncc3cc(NC(=O)N[C@H]4CCC[C@@H]4Oc4ccc(F)cc4)ncc32)ccn1 (racemic) [Example 166, Racemic trans 1-[(1S,2S) and (1R,2R)-2-(4-fluorophenoxy)cyclopentyl]-3-[1-(2-methylpyridin-4-yl)-1H-pyrazolo[3,4-c]-pyridin-5-yl)urea]",7.18
8,"Cc1cc(-n2ncc3cc(NC(=O)N[C@H]4CCCC[C@H]4Cc4ccccc4)ncc32)ccn1 (racemic) [Example 167, Racemic cis 1-[(1S,2S) and (1R,2R)-2-benzylcyclohexyl]-3-[1-(2-methylpyridin-4-yl)-1H-pyrazolo[3,4-c]pyridin-5-yl)urea]",7.64
9,"Cc1cc(-n2ncc3cc(NC(=O)N[C@H]4CCC[C@@H]4c4ccccc4)ncc32)ccn1 (racemic) [Example 168, Racemic trans 1-[1-(2-methylpyridin-4-yl)-1H-pyrazolo[3,4-c]pyridin-5-yl]-3-[(1S,2R) and (1R,2S)-2-phenylcyclopentyl]urea]",8.13
10,"Cc1cc(-n2ncc3cc(NC(=O)N[C@H]4CCCC[C@H]4c4ccc(F)cc4)ncc32)ccn1 (racemic) [Example 174, Racemic cis 1-[(1S,2S) and (1R,2R)-2-(4-fluorophenyl)cyclohexyl]-3-[1-(2-methylpyridin-4-yl)-1H-pyrazolo[3,4-c]pyridin-5-yl]urea]",7.72

# Same assay, conditions: ERK2 IC50, IMAP-FP assay; 0.5 nM hERK2, 30 μM ATP; 10 point titration, 3 μM starting concentration
row,SMILES,pIC50
1,"Cc1cc(-n2ncc3cc(NC(=O)N[C@H]4CCCC[C@@H]4c4ccccc4)ncc32)ccn1 (racemic) [Example 151, Racemic trans 1-[1-(2-methylpyridin-4-yl)-1H-pyrazolo[3,4-c]pyridin-5-yl]-3-[(1S,2R) and (1R,2S)-2-phenylcyclohexyl]urea]",8.44
2,"Cc1cc(-n2ncc3cc(NC(=O)N[C@H]4CCCC[C@@H]4c4ccccc4)ncc32)ccn1 (racemic) [Example 169, Racemic trans 1-[1-(2-methylpyridin-4-yl)-1H-pyrazolo[3,4-c]pyridin-5-yl]-3-[(1S,2R) and (1R,2S)-2-phenylcyclohexyl]urea]",7.18

# Same assay, conditions: read-out: ERK2 IC50; IMAP-FP assay; 0.5 nM hERK2, 30 μM ATP; 10 point titration, 3 μM starting concentration
row,SMILES,pIC50
1,"Cc1cc(-n2ncc3cc(NC(=O)N[C@H]4CN(C)C[C@@H]4c4ccccc4C)ncc32)ccn1 (single isomer, unassigned) [Example 36, 1-[(3R,4S) or (3S, 4R)-1-methyl-4-(2-methylphenyl)pyrrolidin-3-yl]-3-[1-(2-methylpyridin-4-yl)-1H-pyrazolo[3,4-c]pyridin-5-yl)urea]",9.08
2,"CO[C@H]1CN(Cc2c(F)cccc2F)C[C@@H]1NC(=O)Nc1cc2cnn(-c3ccnc(C)c3)c2cn1 (single isomer, unassigned) [Example 273, 1-[(3S,4S) or (3R, 4R)-1-(2,6-difluorobenzyl)-4-methoxypyrrolidin-3-yl]-3-[1-(2-methylpyridin-4-yl)-1H-pyrazolo[3,4-c]pyridin-5-yl]urea]",5.69
3,"CO[C@H]1CN(Cc2c(F)cccc2F)C[C@@H]1NC(=O)Nc1cc2cnn(-c3ccnc(C)c3)c2cn1 (single isomer, unassigned) [Example 274, 1-[(3R,4R) or (3S, 4S)-1-(2,6-difluorobenzyl)-4-methoxypyrrolidin-3-yl]-3-[1-(2-methylpyridin-4-yl)-1H-pyrazolo[3,4-c]pyridin-5-yl]urea]",8.45
4,"O=C(NCc1ccc(F)cc1)Nc1cc2cnn(-c3ccc(F)cc3)c2cn1 [Example 1, 1-(4-fluorobenzyl)-3-(1-(4-fluorophenyl)-1H-pyrazolo[3,4-c]pyridin-5-yl)urea]",7.59
5,"O=C(NCc1ccccc1)Nc1cc2cnn(-c3ccncc3)c2cn1 [Example 2, 1-benzyl-3-(1-pyridin-4-yl-1H-pyrazolo[3,4-c]pyridin-5-yl)urea]",8.57
6,"C[C@@H](NC(=O)Nc1cc2cnn(-c3ccc(F)cc3)c2cn1)c1ccc(F)cc1 [Example 3, 1-[(1R)-1-(4-fluorophenyl)ethyl]-3-[1-(4-fluorophenyl)-1H-pyrazolo[3,4-c]pyridin-5-yl)urea]",7.97
7,"Cn1cc(-n2ncc3cc(NC(=O)NCc4ccc(F)cc4)ncc32)cn1 [Example 4, 1-(4-fluorobenzyl)-3-[1-(1-methyl-1H-pyrazol-4-yl)-1H-pyrazolo[3,4-c]pyridin-5-yl)urea]",7.38
8,"C[C@@H](NC(=O)Nc1cc2cnn(-c3cnn(C)c3)c2cn1)c1ccc(F)cc1 [Example 5, 1-[(1R)-1-(4-fluorophenyl)ethyl]-3-[1-(1-methyl-1H-pyrazol-4-yl)-1H-pyrazolo[3,4-c]pyridin-5-yl)urea]",7.91
9,"O=C(NCc1ccc(F)cc1)Nc1cc2cnn(-c3ccncc3)c2cn1 [Example 6, 1-(4-fluorobenzyl)-3-(1-pyridin-4-yl-1H-pyrazolo[3,4-c]pyridin-5-yl)urea]",8.74
10,"C[C@@H](NC(=O)Nc1cc2cnn(-c3ccncc3)c2cn1)c1ccc(F)cc1 [Example 7, 1-[(1R)-1-(4-fluorophenyl)ethyl]-3-(1-pyridin-4-yl-1H-pyrazolo[3,4-c]pyridin-5-yl)urea]",7.79
11,"O=C(NCCc1ccccc1)Nc1cc2cnn(-c3ccncc3)c2cn1 [Example 8, 1-(2-phenylethyl)-3-(1-pyridin-4-yl-1H-pyrazolo[3,4-c]pyridin-5-yl)urea]",7.79
12,"COc1ccc(CNC(=O)Nc2cc3cnn(-c4ccncc4)c3cn2)cc1 [Example 9, 1-(4-methoxybenzyl)-3-(1-pyridin-4-yl-1H-pyrazolo[3,4-c]pyridin-5-yl)urea]",8.28

# Source: patent US9884048B2, “ERK inhibitors” (Merck Sharp & Dohme Corp., priority 2014, dated 2018)
